Data on seven compounds can be found in patent US6656932B2, “Benzo thiadiazine matrix metalloproteinase inhibitors” (Warner-Lambert Company, priority 2001, dated 2003).

Molecules are shown by their SMILES. Like-named read-outs stand apart in the source and are kept apart here.

Format in all cases: biochemical
The target of assay [1] is MMP-3CD (catalytic domain of stromelysin-1) (Homo sapiens, UniProt P08254). The experiment in a line: Thiopeptolide hydrolysis assay, MMP-3CD. The following applies: thiopeptolide substrate, MES buffer pH 6.0. On the procedure:
(§1) The invention compounds of Formula I have been evaluated in standard assays for their ability to inhibit the catalytic activity of various MMP enzymes.
(§2) Thiopeptolide substrates show virtually no decomposition or hydrolysis at or below neutral pH in the absence of a matrix metalloproteinase enzyme.
(§3) Several representative compounds have been evaluated for their ability to inhibit various matrix metalloproteinase enzymes.
It should be appreciated that the assay buffer used with MMP-3CD was 50 mM of N-morpholinoethane sulfonate (“MES”) at pH 6.0 rather than the HEPES buffer at pH 7.0 described above.

Assay [2] has as its target T1, MMP-7FL (full-length matrilysin) (Homo sapiens, UniProt P09237).
T1 sequence (P09237 95-267): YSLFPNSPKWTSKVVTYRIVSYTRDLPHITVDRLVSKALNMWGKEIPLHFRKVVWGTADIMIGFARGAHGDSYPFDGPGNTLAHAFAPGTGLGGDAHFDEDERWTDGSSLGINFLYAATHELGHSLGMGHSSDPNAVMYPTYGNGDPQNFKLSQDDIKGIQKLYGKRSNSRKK
The experiment in a line: Thiopeptolide hydrolysis assay, MMP-7FL. The following applies: thiopeptolide substrate, HEPES pH 7.0.
Excerpt: as §1, §2, §3

Assay [3] concerns the target MMP-9FL (full-length Gelatinase B) (Homo sapiens, UniProt P14780). The experiment in a line: Thiopeptolide hydrolysis assay, MMP-9FL. The following applies: Table 2; thiopeptolide substrate, HEPES pH 7.0; read-out: IC50 (μM) Versus Certain MMPs: MMP09 (FL).
Excerpt: as §1, §2, §3

Assay [4] has as its target MMP-14CD (catalytic domain of MMP-14) (Homo sapiens, UniProt P50281). The experiment in a line: Thiopeptolide hydrolysis assay, MMP-14CD. The following applies: Table 2; thiopeptolide substrate, HEPES pH 7.0; read-out: IC50 (μM) Versus Certain MMPs: MMP14 (CD).
Excerpt: as §1, §2, §3

In assay [5] the target is T2, MMP-1FL (full-length interstitial collagenase) (Homo sapiens, UniProt P03956).
T2 sequence (P03956 100-469): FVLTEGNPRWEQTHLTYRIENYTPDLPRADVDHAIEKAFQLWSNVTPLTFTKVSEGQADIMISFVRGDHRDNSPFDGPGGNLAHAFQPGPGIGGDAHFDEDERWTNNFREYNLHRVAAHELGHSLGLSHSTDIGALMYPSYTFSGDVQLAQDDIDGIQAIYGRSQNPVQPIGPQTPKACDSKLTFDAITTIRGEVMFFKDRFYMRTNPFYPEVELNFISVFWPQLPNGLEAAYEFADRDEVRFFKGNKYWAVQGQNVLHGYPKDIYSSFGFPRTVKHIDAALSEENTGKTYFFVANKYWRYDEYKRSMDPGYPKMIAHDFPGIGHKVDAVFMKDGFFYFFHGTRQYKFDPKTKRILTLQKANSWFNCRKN
The experiment in a line: Thiopeptolide hydrolysis assay, MMP-1FL. The note with it: Table 2; thiopeptolide substrate, HEPES pH 7.0; read-out: IC50 (μM) Versus Certain MMPs: MMP01 (FL).
Excerpt: as §1, §2, §3

The target of assay [6] is MMP-13CD (catalytic domain of collagenase 3) (Homo sapiens, UniProt P45452). The experiment in a line: Thiopeptolide hydrolysis assay, MMP-13CD. The following applies: thiopeptolide substrate, HEPES pH 7.0.
Excerpt: as §1, §2, §3

Where [7] appears, read: Table 2, read-out: IC50 (μM) Versus Certain MMPs: MMP03 (CD).
[8] abbreviates: Table 2, read-out: IC50 (μM) Versus Certain MMPs: MMP07 (FL).
[9] abbreviates: Table 2, read-out: IC50 (μM) Versus Certain MMPs: MMP13 (CD).

Sequence of MMP-9FL (full-length Gelatinase B) (P14780 94-707, species assumed): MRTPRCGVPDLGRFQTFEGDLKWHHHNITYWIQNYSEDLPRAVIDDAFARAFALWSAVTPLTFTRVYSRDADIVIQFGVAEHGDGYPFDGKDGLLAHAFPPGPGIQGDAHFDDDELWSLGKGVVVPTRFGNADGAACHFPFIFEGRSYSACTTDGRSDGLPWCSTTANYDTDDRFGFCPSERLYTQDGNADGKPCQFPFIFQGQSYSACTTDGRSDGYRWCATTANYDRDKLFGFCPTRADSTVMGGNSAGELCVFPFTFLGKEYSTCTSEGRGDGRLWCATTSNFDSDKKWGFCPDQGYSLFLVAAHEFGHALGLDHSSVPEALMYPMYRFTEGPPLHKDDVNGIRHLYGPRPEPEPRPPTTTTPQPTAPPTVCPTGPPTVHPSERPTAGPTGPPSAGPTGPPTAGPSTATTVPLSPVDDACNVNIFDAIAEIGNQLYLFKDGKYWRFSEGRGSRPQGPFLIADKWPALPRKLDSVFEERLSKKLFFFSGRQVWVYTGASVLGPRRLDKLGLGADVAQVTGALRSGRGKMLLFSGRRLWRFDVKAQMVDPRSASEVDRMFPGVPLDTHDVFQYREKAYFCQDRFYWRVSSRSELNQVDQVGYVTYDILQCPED
Sequence of MMP-3CD (catalytic domain of stromelysin-1) (P08254 100-272 limits assumed): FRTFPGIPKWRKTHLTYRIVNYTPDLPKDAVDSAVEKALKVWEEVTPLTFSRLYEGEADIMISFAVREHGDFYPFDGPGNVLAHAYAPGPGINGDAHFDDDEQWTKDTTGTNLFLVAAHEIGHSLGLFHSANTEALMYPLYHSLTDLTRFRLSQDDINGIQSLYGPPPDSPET

`CN1C(=O)N(Cc2ccccc2)S(=O)(=O)c2cc(C(=O)NCc3ccc4nsnc4c3)ccc21` [Example 24, 2-Benzyl-4-methyl-1,1,3-trioxo-1,2,3,4-tetrahydro-1l^6-benzo[1,2,4]thiadiazine-7-carboxylic acid (2,1,3-benzothiadiazol-5-ylmethyl)-amide]: the IC50 in assay [1] (setting [7]) was 13 µM; in assay [2] (setting [8]), more than 30 µM; in assay [3] it was more than 30 µM; in assay [4], more than 30 µM; in assay [5], more than 30 µM; in assay [6] (setting [9]), 0.125 µM.

As for `COc1ccc(CNC(=O)c2ccc3c(c2)S(=O)(=O)N(Cc2ccc4ccccc4c2)C(=O)N3C)cc1` [Example 22, 4-Methyl-2-naphthalen-2-ylmethyl-1,1,3-trioxo-1,2,3,4-tetrahydro-1l^6-benzo[1,2,4]thiadiazine-7-carboxylic acid 4-methoxy-benzylamide], the IC50 in assay [1] (setting [7]) was more than 30 µM; in assay [2] (setting [8]), more than 30 µM; in assay [3], more than 30 µM; in assay [4], more than 30 µM; in assay [5] it was more than 30 µM; in assay [6] (setting [9]), 0.62 µM.

Take `CN1C(=O)N(Cc2ccccc2)S(=O)(=O)c2cc(C(=O)NCc3ccc(F)cc3)ccc21` [Example 16, 2-Benzyl-4-methyl-1,1,3-trioxo-1,2,3,4-tetrahydro-1l^6-benzo[1,2,4]thiadiazine-7-carboxylic acid 4-fluoro-benzylamide]: the IC50 in assay [1] (setting [7]) was more than 100 µM; in assay [2] (setting [8]), more than 30 µM; in assay [3] it was more than 30 µM; in assay [4], more than 30 µM; in assay [5] it was more than 100 µM; in assay [6] (setting [9]) it was 0.345 µM.

For the compound `COc1cc(CNC(=O)c2ccc3c(c2)S(=O)(=O)N(Cc2ccccc2)C(=O)N3C)ccn1` [Example 21, 2-Benzyl-4-methyl-1,1,3-trioxo-1,2,3,4-tetrahydro-1l^6-benzo[1,2,4]thiadiazine-7-carboxylic acid (2-methoxy-pyridin-4-ylmethyl)-amide], the IC50 in assay [1] (setting [7]) is more than 30 µM; in assay [2] (setting [8]), more than 30 µM; in assay [3], more than 30 µM; in assay [4], more than 100 µM; in assay [5], more than 30 µM; in assay [6] (setting [9]), 0.155 µM.

Consider `CNS(=O)(=O)c1ccc(CN2C(=O)N(C)c3ccc(C(=O)NCc4ccc(OC)cc4)cc3S2(=O)=O)cc1` [Example 18, 4-Methyl-2-(4-methylsulfamoyl-benzyl)-1,1,3-trioxo-1,2,3,4-tetrahydro-1l^6-benzo[1,2,4]thiadiazine-7-carboxylic acid 4-methoxy-benzylamide], for which the IC50 is 10 µM in assay [1] (setting [7]); more than 30 µM in assay [2] (setting [8]); more than 30 µM in assay [3]; more than 30 µM in assay [4]; more than 30 µM in assay [5]; 0.31 µM in assay [6] (setting [9]).

Turning to `COc1ccc(CNC(=O)c2ccc3c(c2)S(=O)(=O)N(Cc2ccc(C#N)cc2)C(=O)N3C)cc1` [Example 29, 2-(4-Cyano-benzyl)-4-methyl-1,1,3-trioxo-1,2,3,4-tetrahydro-1l^6-benzo[1,2,4]thiadiazine-7-carboxylic acid 4-methoxy-benzylamide], the IC50 is 9.4 µM in assay [1] (setting [7]); more than 30 µM in assay [2] (setting [8]); more than 30 µM in assay [3]; more than 30 µM in assay [4]; more than 30 µM in assay [5]; 0.13 µM in assay [6] (setting [9]).

Turning to `CN1C(=O)N(Cc2ccccc2)S(=O)(=O)c2cc(C(=O)OCc3ccccc3)ccc21` [Example 1, 2-Benzyl-4-methyl-1,1,3-trioxo-1,2,3,4-tetrahydro-1l^6-benzo[1,2,4]thiadiazine-7-carboxylic Acid Benzyl Ester], the IC50 was determined as 85 µM in assay [1] (Table 1, read-out: MMP03 (CD) IC50); 44 µM in assay [2] (Table 1, read-out: MMP07 (FL) IC50); 0.2 µM in assay [6] (Table 1, read-out: MMP13 (CD) IC50).
